PubChem BioAssay (NCI)
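Cultured in 96-well plates, cells were exposed to test compound for 48 hours across five concentrations. GI50 marks 50% less growth. TGI: total growth inhibition.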

Legend:
Experiment in all cases: growth of human tumour cells (NCI), 48 h
LOX IMVI melanoma = system: LOX IMVI melanoma
SK-OV-3 ovarian = system: SK-OV-3 ovarian
HOP-92 NSCLC = system: HOP-92 NSCLC
IGROV1 ovarian = system: IGROV1 ovarian
ACHN renal = system: ACHN renal
HOP-62 NSCLC = system: HOP-62 NSCLC
MDA-MB-231 breast = system: MDA-MB-231 breast
CCRF-CEM leukemia = system: CCRF-CEM leukemia

SMILES | GI50 (LOX IMVI melanoma) | TGI (LOX IMVI melanoma) | GI50 (SK-OV-3 ovarian) | TGI (SK-OV-3 ovarian) | GI50 (HOP-92 NSCLC) | TGI (HOP-92 NSCLC) | GI50 (IGROV1 ovarian) | TGI (IGROV1 ovarian) | GI50 (ACHN renal) | TGI (ACHN renal) | GI50 (HOP-62 NSCLC) | TGI (HOP-62 NSCLC) | GI50 (MDA-MB-231 breast) | TGI (MDA-MB-231 breast) | GI50 (CCRF-CEM leukemia) | TGI (CCRF-CEM leukemia)
O=C1c2cccc3c(N4CCN(c5ccc6c7c(cccc57)C(=O)N(CCN5CCNCC5)C6=O)CC4)ccc(c23)C(=O)N1CCN1CCNCC1 | 6570 nM | 25.4 µM | 25.7 µM | 82.9 µM | 7310 nM | 29 µM | 6320 nM | 29.4 µM | 7230 nM | 22.5 µM | 7.96 µM | 27.7 µM | 10400 nM | 25.1 µM | 3090 nM | 18.4 µM
Clc1ccc2c(NCCCN3CCN(c4nc(-n5ccnc5)nc5ccccc45)CC3)ccnc2c1 | 1840 nM | 3.69 µM | > 47.3 µM | > 62.8 µM | 14300 nM | > 62.3 µM | 2960 nM | 23.7 µM | > 23400 nM | > 56.5 µM | 44.8 µM | > 100 µM | – | – | 2870 nM | > 100 µM
O=C1OC(c2ccc([N+](=O)[O-])cc2)=N/C1=C\c1ccc(O)cc1 | – | > 100 µM | – | > 100 µM | – | > 100 µM | – | > 100 µM | – | > 100 µM | – | > 100 µM | – | > 100 µM | – | > 100 µM
Cc1ccnc2c1NC(=O)c1cccnc1N2C1CC1 | > 100000 nM | > 100 µM | > 100 µM | > 100 µM | > 100000 nM | > 100 µM | > 100000 nM | > 100 µM | > 100000 nM | > 100 µM | > 100 µM | > 100 µM | > 100000 nM | > 100 µM | > 100000 nM | > 100 µM
Nc1ccc(-c2ccc(-c3nc4ccccc4[nH]3)cc2)cc1 | – | > 100 µM | 46 µM | > 100 µM | 18600 nM | 71.2 µM | 26200 nM | > 82.4 µM | 13600 nM | > 92.8 µM | 3.83 µM | 56.6 µM | 29600 nM | > 100 µM | 2770 nM | > 78.7 µM
C[C@]12CC[C@H]3[C@@H](C[C@@H]4SC(Nc5cccc(F)c5)=N[C@@]45CC(=O)CC[C@]35C)[C@@H]1CCC2=O | 1670 nM | 3.21 µM | 2.33 µM | 6.1 µM | 2250 nM | 4.17 µM | 1890 nM | 3.83 µM | 1780 nM | 3.24 µM | 2.07 µM | 5.34 µM | 2110 nM | 4.59 µM | 1900 nM | > 100 µM
CS(=O)(=O)c1ccc(C(F)(F)F)cc1NC(=O)Nc1cnc(Oc2ccc(-c3cc(Cl)cnc3N)cc2)nc1 | 1620 nM | 3.05 µM | 3.31 µM | 18 µM | 1750 nM | 5.12 µM | 1730 nM | 6.04 µM | 1980 nM | 6.32 µM | 3.27 µM | 12.5 µM | 1720 nM | 3.79 µM | 3220 nM | > 100 µM
COCCOC(C)C(/C=N/NC(N)=S)=N/NC(N)=S (stereo not given) | – | > 100 µM | > 100 µM | > 100 µM | > 100000 nM | > 100 µM | – | – | > 100000 nM | > 100 µM | > 100 µM | > 100 µM | – | – | – | –
O=C(c1cccs1)c1c(C(F)(F)F)n([O-])c2cc(F)c(F)cc2[n+]1=O | 747 nM | 1.78 µM | 2.69 µM | 5.85 µM | 1460 nM | 4.24 µM | 1860 nM | 3.92 µM | 419 nM | 1.4 µM | 3.77 µM | 6.21 µM | 1000 nM | 3.32 µM | 180 nM | 0.729 µM
N#CC1=C(N)Oc2c(sc3c(F)cccc23)C1c1ccc([N+](=O)[O-])cc1 (stereo not given) | 133 nM | 1.09 µM | 0.308 µM | 2.37 µM | 156 nM | 1.18 µM | 152 nM | 1.56 µM | 407 nM | 2.31 µM | 0.228 µM | 1.79 µM | 215 nM | 1.21 µM | 179 nM | 3.23 µM
CCOC(=O)c1c(C)c2c(n1C)CSc1cc(S(=O)(=O)c3ccccc3)c(=O)[nH]c1-2 | 24100 nM | > 100 µM | 28.9 µM | > 100 µM | 1110 nM | 28.5 µM | 16700 nM | > 100 µM | 26300 nM | > 100 µM | 31.5 µM | 89.9 µM | 24500 nM | > 100 µM | 27500 nM | > 100 µM
N#Cc1c(NC(=O)CCC(=O)O)ccc2ccccc12 | – | – | – | > 100 µM | – | > 100 µM | – | > 100 µM | – | > 100 µM | – | > 100 µM | – | > 100 µM | – | –
C=CCSc1n[nH]c(-c2cccs2)n1 | > 100000 nM | > 100 µM | > 100 µM | > 100 µM | > 100000 nM | > 100 µM | > 100000 nM | > 100 µM | > 100000 nM | > 100 µM | > 100 µM | > 100 µM | > 100000 nM | > 100 µM | > 100000 nM | > 100 µM
O=C(O)[C@@H]1C[C@@H](O)CN1 | – | > 100 µM | – | > 100 µM | – | > 100 µM | – | > 100 µM | – | > 100 µM | – | > 100 µM | – | > 100 µM | – | > 100 µM
O=C1C(Nc2ccccn2)=C(I)C(=O)c2ncccc21 | 305 nM | 1.66 µM | 1.33 µM | 2.64 µM | 1650 nM | 4.36 µM | 741 nM | 2.25 µM | 403 nM | 4.49 µM | 1.12 µM | 2.43 µM | 1530 nM | 4.86 µM | 552 nM | 5.19 µM
C[C@]12CC[C@@H]3c4ccc(O)cc4CC[C@H]3[C@@H]1CC[C@@H]2NS(=O)(=O)c1cccc(Br)c1 | 3130 nM | 11.6 µM | 6.8 µM | 18.6 µM | 1850 nM | 6.44 µM | 4040 nM | 16.5 µM | 2910 nM | 8.61 µM | 10.4 µM | 22.5 µM | 3880 nM | 13.9 µM | 3060 nM | 20.3 µM
